From patent US9273033B2, “Substituted pyridone derivatives as PDE10 inhibitors” (Merck Sharp & Dohme Corp., priority 2012, dated 2016)

Molecular target: human PDE10A2 (Homo sapiens (Human), UniProt Q9Y233)
Experiment: PDE10 fluorescence polarization (IMAP FP) inhibition assay
Type: biochemical
Details: human PDE10A2, FAM-labeled cAMP substrate, read-out: PDE10A Ki
Description: The activity of the compounds in accordance with the present invention as PDE10 inhibitors may be readily determined without undue experimentation using a fluorescence polarization (FP) methodology that is well known in the art (Huang, W., et al., J. Biomol Screen, 2002, 7: 215).
In a typical experiment the PDE10 inhibitory activity of the compounds of the present invention was determined in accordance with the following experimental method. PDE10A2 was amplified from human fetal brain cDNA (Clontech, Mountain View, Calif.) using a forward primer corresponding to nucleotides 56-77 of human PDE10A2 (Accession No. AF127480, Genbank Identifier 4894716), containing a Kozak consensus sequence, and a reverse primer corresponding to nucleotides 2406-2413 of human PDE10A2 (Accession No. AF127480, Genbank Identifier 4894716). Amplification with Easy-A polymerase (Stratagene, La Jolla, Calif.) was 95° C. for 2 minutes followed by thirty three cycles of 95° C. for 40 seconds, 55° C. for 30 seconds, and 72° C. for 2 minutes 48 seconds. Final extension was 72° C. for 7 minutes. The PCR product was TA cloned into pcDNA3.2-TOPO (Invitrogen, Carlsbad, Calif.) according to standard protocol. AD293 cells with 70-80% confluency were transiently transfected with human PDE10A2/pcDNA3.2-TOPO using Lipofectamine 2000 according to manufacturer specifications (Invitrogen, Carlsbad, Calif.). Cells were harvested 48 hours post-transfection and lysed by sonication (setting 3, 10×5 sec pulses) in a buffer containing 20 mM HEPES, 1 mM EDTA and protease inhibitor cocktail (Roche). Lysate was collected by centrifugation at 75,000×g for 20 minutes. Supernatant containing the cytoplasmic fraction was used for evaluation of PDE10A2 activity. The fluorescence polarization assay for cyclic nucleotide phosphodiesterases was performed using an IMAP® FP kit supplied by Molecular Devices, Sunnyvale, Calif. (product # R8139). IMAPU technology has been applied previously to phosphodiesterase assays (Huang, W., et al., J. Biomol Screen, 2002, 7: 215). Assays were performed at room temperature in 384-well microtiter plates with an incubation volume of 20.2 μL. Solutions of test compounds were prepared in DMSO and serially diluted with DMSO to yield 8 μL of each of 10 solutions differing by 3-fold in concentration, at 32 serial dilutions per plate. 100% inhibition is determined using a known PDE10 inhibitor, which can be any compound that is present at 5,000 times its Ki value in the assay described as follows, such as papaverine (see Siuciak, et al. Neuropharmacology (2006) 51:386-396; Becker, et al. Behav Brain Res (2008) 186(2):155-60; Threlfell, et al., J Pharmacol Exp Ther (2009) 328(3):785-795), 2-{4-[pyridin-4-yl-1-(2,2,2-trifluoroethyl)-1H-pyrazol-3-yl]phenoxymethyl}quinoline succinic acid or 2-[4-(1-methyl-4-pyridin-4-yl-1H-pyrazol-3-yl)-phenoxymethyl]quinoline succinic acid (see Schmidt, et al. J Pharmacol Exp Ther (2008) 325:681-690; Threlfell, et al., J Pharmacol Exp Ther (2009) 328(3): 785-795). 0% of inhibition is determined by using DMSO (1% final concentrations).
A Labcyte Echo 555 (Labcyte, Sunnyvale, Calif.) is used to dispense 200 nL from each well of the titration plate to the 384 well assay plate. A solution of enzyme (1/1600 dilution from aliquots; sufficient to produce 20% substrate conversion) and a separate solution of FAM-labeled cAMP PDE from Molecular Devices (product # R7506), at a final concentration of 50 nM are made in the assay buffer (10 mM Tris HCl, pH 7.2, 10 mM MgCl2, 0.05% NaN3 0.01% Tween-20, and 1 mM DTT). The enzyme and the substrate are then added to the assay plates in two consecutive additions of 10 μL, and then shaken to mix. The reaction is allowed to proceed at room temperature for 30 minutes. A binding solution is then made from the kit components, comprised of 80% Solution A, 20% Solution B and binding reagent at a volume of 1/600 the total binding solution.

Sequence of human PDE10A2 (Q9Y233 267-1055): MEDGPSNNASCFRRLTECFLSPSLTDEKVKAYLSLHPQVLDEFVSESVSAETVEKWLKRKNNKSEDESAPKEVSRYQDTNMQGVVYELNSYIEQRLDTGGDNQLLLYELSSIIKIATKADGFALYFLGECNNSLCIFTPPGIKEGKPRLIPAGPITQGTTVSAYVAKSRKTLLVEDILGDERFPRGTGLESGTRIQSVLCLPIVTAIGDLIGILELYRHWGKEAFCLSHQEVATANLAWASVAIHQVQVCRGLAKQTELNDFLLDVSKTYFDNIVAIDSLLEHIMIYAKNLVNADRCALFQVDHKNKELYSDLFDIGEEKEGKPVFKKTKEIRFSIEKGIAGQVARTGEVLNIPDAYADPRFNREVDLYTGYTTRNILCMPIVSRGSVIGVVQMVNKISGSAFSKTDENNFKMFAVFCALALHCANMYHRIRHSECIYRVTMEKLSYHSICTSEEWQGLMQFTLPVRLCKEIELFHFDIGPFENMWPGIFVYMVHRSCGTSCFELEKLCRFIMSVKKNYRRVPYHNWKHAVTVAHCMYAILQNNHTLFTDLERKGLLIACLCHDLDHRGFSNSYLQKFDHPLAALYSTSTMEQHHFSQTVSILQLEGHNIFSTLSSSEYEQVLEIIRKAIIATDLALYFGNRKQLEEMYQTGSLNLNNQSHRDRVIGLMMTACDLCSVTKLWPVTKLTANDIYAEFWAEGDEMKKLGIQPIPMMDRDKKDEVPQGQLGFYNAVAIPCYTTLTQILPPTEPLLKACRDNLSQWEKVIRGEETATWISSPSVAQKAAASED

SMILES	Ki
[2H]C([2H])([2H])n1cc(-c2cnc(C)nc2OC[C@H]2C[C@@H]2c2ccc(C)cn2)ccc1=O [Example 48, 1-methyl-5-(2-methyl-4-(((1S,2S)-2-(5-methylpyridin-2-yl)cyclopropyl)methoxy)pyrimidin-5-yl)pyridin-2(1H)-one]	1.7 nM
Cc1ccc([C@H]2C[C@@H]2COc2nc(C)ncc2-c2ccc(=O)n(CC3CC3)c2)nc1 [Example 49, 1-(cyclopropylmethyl)-5-(2-methyl-4-(((1S,2S)-2-(5-methylpyridin-2-yl)cyclopropyl)methoxy)pyrimidin-5-yl)pyridin-2(1H)-one]	0.983 nM
[2H]C([2H])([2H])n1cc(-c2cnc(C)nc2OC[C@H]2C[C@@H]2c2ccc(OC)cn2)ccc1=O [Example 51, 5-(4-(((1S,2S)-2-(5-methoxypyridin-2-yl)cyclopropyl)methoxy)-2-methylpyrimidin-5-yl)-1-methylpyridin-2(1H)-one]	0.946 nM
COc1ccc([C@H]2C[C@@H]2COc2nc(C)ncc2-c2ccc(=O)n(CC3CC3)c2)nc1 [Example 53, 1-(cyclopropylmethyl)-5-(4-(((1S,2S)-2-(5-methoxypyridin-2-yl)cyclopropyl)methoxy)-2-methylpyrimidin-5-yl)pyridin-2(1H)-one]	0.377 nM
COc1cc(-c2cnc(C)nc2OC[C@H]2C[C@@H]2c2ccc3c(n2)CCC3)cn(C)c1=O [Example 54, 5-(4-(((1S,2S)-2-(6,7-dihydro-5H-cyclopenta[b]pyridin-2-yl)cyclopropyl)methoxy)-2-methylpyrimidin-5-yl)-3-methoxy-1-methylpyridin-2(1H)-one]	0.045 nM
COc1cc(-c2cnc(C)nc2OC[C@H]2C[C@@H]2c2ccc3ccccc3n2)cn(C)c1=O [Example 56, 3-methoxy-1-methyl-5-(2-methyl-4-(((1S,2S)-2-(quinolin-2-yl)cyclopropyl)methoxy)pyrimidin-5-yl)pyridin-2(1H)-one]	0.004 nM
Cc1ncc(-c2ccc(=O)n(C)c2C)c(OC[C@H]2C[C@@H]2c2ccc3c(n2)CCC3)n1 [Example 58, 5-(4-(((1S,2S)-2-(6,7-dihydro-5H-cyclopenta[b]pyridin-2-yl)cyclopropyl)methoxy)-2-methylpyrimidin-5-yl)-1,6-dimethylpyridin-2(1H)-one]	0.481 nM
Cc1ccc([C@H]2C[C@@H]2COc2nc(C)ncc2-c2cc(C#N)c(=O)n(C)c2C)nc1 [Example 59, 1,6-dimethyl-5-(2-methyl-4-(((1S,2S)-2-(5-methylpyridin-2-yl)cyclopropyl)methoxy)pyrimidin-5-yl)-2-oxo-1,2-dihydropyridine-3-carbonitrile]	0.426 nM
COc1ccc([C@H]2C[C@@H]2COc2nc(C)ncc2-c2cc(C#N)c(=O)n(C)c2C)nc1 [Example 60, 5-(4-(((1S,2S)-2-(5-methoxypyridin-2-yl)cyclopropyl)methoxy)-2-methylpyrimidin-5-yl)-1,6-dimethyl-2-oxo-1,2-dihydropyridine-3-carbonitrile]	0.117 nM
COc1ccc([C@H]2C[C@@H]2COc2nc(C)ncc2-c2cn(C)c(=O)cn2)nc1 [Example 61, 5-(4-(((1S,2S)-2-(5-methoxypyridin-2-yl)cyclopropyl)methoxy)-2-methylpyrimidin-5-yl)-1-methylpyrazin-2(1H)-one]	16.7 nM
Cc1ccc([C@H]2C[C@@H]2COc2nc(C)ncc2-c2cn(C)c(=O)cn2)nc1 [Example 62, 1-methyl-5-(2-methyl-4-(((1S,2S)-2-(5-methylpyridin-2-yl)cyclopropyl)methoxy)pyrimidin-5-yl)pyrazin-2(1H)-one]	12.9 nM
Cc1ccc([C@H]2C[C@@H]2COc2nc(C)ncc2-c2cc(C)c(=O)n(C)n2)nc1 [Example 65, 2,4-dimethyl-6-(2-methyl-4-(((1S,2S)-2-(5-methylpyridin-2-yl)cyclopropyl)methoxy)pyrimidin-5-yl)pyridazin-3(2H)-one]	1.83 nM
COc1ccc([C@H]2C[C@@H]2COc2nc(C)ncc2-c2cc(C)c(=O)n(C)n2)nc1 [Example 66, 6-(4-(((1S,2S)-2-(5-methoxypyridin-2-yl)cyclopropyl)methoxy)-2-methylpyrimidin-5-yl)-2,4-dimethylpyridazin-3(2H)-one]	1.23 nM

The remaining molecules from weak to strong by Ki, led by results:

Ki	SMILES
9.68 nM	Cc1ccc([C@H]2C[C@@H]2COc2nc(C)ncc2-c2nn(C)c(=O)cc2C)nc1 [Example 68, 2,5-dimethyl-6-(2-methyl-4-(((1S,2S)-2-(5-methylpyridin-2-yl)cyclopropyl)methoxy)pyrimidin-5-yl)pyridazin-3(2H)-one]
5.55 nM	COc1ccc([C@H]2C[C@@H]2COc2nc(C)ncc2-c2nn(C)c(=O)cc2C)nc1 [Example 67, 6-(4-(((1S,2S)-2-(5-methoxypyridin-2-yl)cyclopropyl)methoxy)-2-methylpyrimidin-5-yl)-2,5-dimethylpyridazin-3(2H)-one]
4.42 nM	COc1ccc([C@H]2C[C@@H]2COc2nc(C)ncc2-c2ccc(=O)[nH]n2)nc1 [Example 63, 6-(4-(((1S,2S)-2-(5-methoxypyridin-2-yl)cyclopropyl)methoxy)-2-methylpyrimidin-5-yl)pyridazin-3(2H)-one]
3.65 nM	COC(=O)Cn1cc(-c2cnc(C)nc2OC[C@H]2C[C@@H]2c2ccc(OC)cn2)ccc1=O [Example 47, methyl 2-(5-(4-(((1S,2S)-2-(5-methoxypyridin-2-yl)cyclopropyl)methoxy)-2-methylpyrimidin-5-yl)-2-oxopyridin-1(2H)-yl)acetate]
3.11 nM	COc1ccc([C@H]2C[C@@H]2COc2nc(C)ncc2-c2ccc(=O)n(CC(F)(F)F)c2)nc1 [Example 52, 5-(4-(((1S,2S)-2-(5-methoxypyridin-2-yl)cyclopropyl)methoxy)-2-methylpyrimidin-5-yl)-1-(2,2,2-trifluoroethyl)pyridin-2(1H)-one]
2.83 nM	COc1ccc([C@H]2C[C@@H]2COc2nc(C)ncc2-c2ccc(=O)n(C)n2)nc1 [Example 64, 6-(4-(((1S,2S)-2-(5-methoxypyridin-2-yl)cyclopropyl)methoxy)-2-methylpyrimidin-5-yl)-2-methylpyridazin-3(2H)-one]
1.43 nM	CCn1ccc(-c2cnc(C)nc2OC[C@H]2C[C@@H]2c2ccc(C)cn2)cc1=O [Example 69, 1-ethyl-4-(2-methyl-4-(((1S,2S)-2-(5-methylpyridin-2-yl)cyclopropyl)methoxy)pyrimidin-5-yl)pyridin-2(1H)-one]
1.25 nM	COc1ccc([C@H]2C[C@@H]2COc2nc(C)ncc2-c2ccn(C)c(=O)c2)nc1 [Example 70, 4-(4-(((1S,2S)-2-(5-methoxypyridin-2-yl)cyclopropyl)methoxy)-2-methylpyrimidin-5-yl)-1-methylpyridin-2(1H)-one]
0.349 nM	COc1cc(-c2cnc(C)nc2OC[C@H]2C[C@@H]2c2ccc(C)cn2)cn(C)c1=O [Example 57, 3-methoxy-1-methyl-5-(2-methyl-4-(((1S,2S)-2-(5-methylpyridin-2-yl)cyclopropyl)methoxy)pyrimidin-5-yl)pyridin-2(1H)-one]
0.347 nM	CCc1cc(-c2cnc(C)nc2OC[C@H]2C[C@@H]2c2ccc(C)cn2)cn(C)c1=O [Example 55, 3-ethyl-1-methyl-5-(2-methyl-4-(((1S,2S)-2-(5-methylpyridin-2-yl)cyclopropyl)methoxy)pyrimidin-5-yl)pyridin-2(1H)-one]
